The source of these data is patent US12691109B2, “Bifunctional aggregation-induced emission luminogen for monitoring and killing of multidrug-resistant bacteria” (The Hong Kong University of Science and Technology, priority 2018, dated 2026).

One data set has as its system MDR S. epidermidis. As to the kind of experiment: Morphological changes of bacteria by FE-SEM and FEHR-TEM. In kind it is cell-based. The following applies: TriPE-NT without or with light irradiation (4 mW cm^−2, 30 min). From the text: (§1) FIGS. 24A-E show images of TriPE-NT-induced morphological changes of E. coli, MDR E. coli, S. epidermidis and MDR S. epidermidis with white light irradiation by FE-SEM and FEHR-TEM, bacteria without treatment were set as controls. […] FIG. 24D is a graph plotting elemental curve measured on the super-thin slices of TriPE-NT-treated E. coli from the region marked by the rectangle in FIG. 24C. FIG. 24 E is a graph plotting the elemental curve measured on the super-thin slices of TriPE-NT-treated S. epidermidis from the region marked by rectangle in FIG. 24C.
(§2) To gain more insights into the TriPE-NT-bacteria interactions, FE-SEM and field-emission high resolution transmission electron microscope (FEHR-TEM) were used to visualize the morphological changes of the bacteria under TriPE-NT treatment, selecting E. coli (G−), MDR E. coli (G−), and S. epidermidis (G+), MDR S. epidermidis (G+) as representatives.

A further data set deals with MDR E. coli. The data set is described as above. In kind it is cell-based.
Excerpt: as §1, §2

Data set [1] relates to E. coli. The description is as above. In kind it is cell-based.
Excerpt: as §1, §2

In data set [2] the test system is S. epidermidis. The description is as above. Particulars: TriPE-NT without or with light irradiation (4 mW cm^−2, 30 min). In kind it is cell-based.
Excerpt: as §1, §2

For data set [3], the system named is E. coli. Description: Bacteria staining with TriPE-NT and PI, CLSM. In kind it is cell-based. The following applies: 10 min. How it is done:
(§3) TriPE-NT: Ex, 405 nm, Em, 500-560 nm; PI: Ex, 514 nm, Em, 600-700 nm.
(§4) FIG. 21B is a graph plotting stained percentages for E. coli, MDR E. coli, K. pneumoniae, MDR K. pneumoniae, S. epidermidis, MDR S. epidermidis, S. aureus, and MDR S. aureus.
(§5) FIG. 21C is a graph plotting percentage of dead bacteria stained by propidium iodine (PI) after the bacteria were incubated with 10 μM of TriPE-NT or PI for 10 min.
(§6) To indicate the status of the bacteria after TriPE-NT treatment, the bacteria was incubated with commercial dead bacteria-staining fluorescent reagent propidium iodide (PI) and TriPE-NT at the same time. Thanks to the AIE characteristics and water solubility of TriPE-NT, there was almost no background fluorescence in the imaging field. E. coli and S. epidermidis, which emitted bright orange (TriPE-NT) or red (PI) fluorescence, are clearly visualized under confocal laser scanning microscope (CLSM) (FIG. 21A-C, 22-23). […] In comparison, relatively low percentage of Gram-negative bacteria were stained by TriPE-NT (e.g., 88.1±9.8% E. coli, 84.3±12.7% MDR E. coli, 47.9±7.7% K. pneumoniae and 35.8±4.9% MDR K. pneumoniae) (FIG. 21B, FIG. 22). […] By contrast, relatively low percentages of E. coli (22.1±12.2% E. coli) were co-stained by both TriPE-NT and PI (FIGS. 21A, C), which is also similar to other Gram-negative bacteria (15.3±3.7%, MDR E. coli, 8.8±3.2%, K. pneumoniae and 6.4±2.6% MDR K. pneumoniae) (FIGS. 21A & C, 22). The reason for this difference possibly is ascribed to the extra membrane of Gram-negative bacteria which is absent in Gram-positive bacteria. These observations also illustrated that both Gram-negative bacteria and Gram-positive bacteria are vulnerable to TriPE-NT treatment, the possible reason is that these bacteria with negatively charged membranes, could anchor, uptake, and aggregate the positively charged probe, which restricts the intramolecular motion of the probe and causes their fluorescence emission.

The subject of data set [4] is S. epidermidis. As to the kind of experiment: Bacteria staining with TriPE-NT and PI, CLSM. The following applies: 10 min. In kind it is cell-based. How it is done:
as §3, §4, §5, §6

A further data set concerns E. coli-infected wounds. As to the kind of experiment: Bacteria-infected full-thickness skin wound model on rats. In kind it is in vivo, Wistar rats. From the text: (§7) FIGS. 26A-D show In vivo evaluation of TriPE-NT in treatment of bacteria-infected wounds on rats. FIG. 26A illustrates the process of establishing bacteria-infected full-thickness skin wound models on rats. […] FIG. 26C is a graph plotting the proportion of the E. coli and MDR E. coli infected wound area on day 3 and day 7 after the injury. FIG. 26D is a graph plotting the proportion of the S. epidermidis and MDR S. epidermidis infected wound area on day 3 and day 7 after the injury (each experiment was repeated at least 5 times).
(§8) To further evaluate the anti-bacterial activity of TriPE-NT in vivo, the performance of TriPE-NT on bacteria-infected wounds of rats was tested. E. coli-, MDR E. coli-, S. epidermidis or MDR S. epidermidis-infected, full-thickness skin wounds were established on the dorsal skin of the Wistar rats (FIG. 26A). The macroscopic appearance of the healing processes of the wounds was captured at different time points (FIG. 26B).
(§9) Hematoxylin and eosin (HE) staining was carried out for evaluating the wound healing of the sectioned tissues of the E. coli-, MDR E. coli-, S. epidermidis- and MDR S. epidermidis-infected wounds on the Wistar rats on day 3 and day 7 post-injury (FIG. 28). […] Fibroblasts can secret collagens which accelerate wound reconstruction, that means the TriPE-NT plus light irradiation can promote the wound healing.

The subject of data set [5] is MDR E. coli-infected wounds. Described as above. In kind it is in vivo, Wistar rats.
Excerpt: as §7, §8, §9

For data set [6], the system named is S. epidermidis-infected wounds. The description is as above. In kind it is in vivo, Wistar rats.
Excerpt: as §7, §8, §9

Data set [7] deals with human umbilical vein endothelial cells (HUVECs). As to the kind of experiment: Cytotoxicity, CCK-8 kit. In kind it is cell-based. How it is done:
(§10) FIGS. 18A-B are graphs depicting cell viability of human amniotic fluid stem cells (HAFs) and human umbilical vein endothelial cells (HUVECs) after incubation with TriPE-NT at different concentrations of 0, 2, 5, 10 and 20 μM under dark conditions and upon white-light illumination (4 mW cm^−2) for 2 and 30 min.
(§11) Cytotoxicity of the TriPE-NT was tested because a good antibacterial drug should have the ability to kill only bacteria and have no toxicity to human or animal cells. The biocompatibility of TriPE-NT was evaluated by CCK-8 kit.
In general terms: Formazan colour is commonly taken as a measure of viable cells.

The subject of data set [8] is human skin fibroblast cells (HAFs). Description: Cytotoxicity, CCK-8 kit. In kind it is cell-based. The protocol: as §10, §11
[9] abbreviates: TriPE-NT in the absence of white light.
The mark [10] stands for this setting: TriPE-NT with light irradiation.
Where [11] appears, read: day 3 post-injury, TriPE-NT plus light vs control.
[12] abbreviates: day 3 post-injury, TriPE-NT plus light vs untreated.
Setting [13] is: day 7 post-injury, TriPE-NT plus light (4 mW cm^−2, 30 min) vs control.
Where [14] appears, read: 2, 5, 10 and 20 RM, absence of white light irradiation.
Where [15] appears, read: white light 4 mW cm^−2, 2 and 30 min.

Each structure is given as a SMILES string. Entries after “also recorded” stand apart in the source; their conditions may differ.

For `COc1ccc(C(=Cc2ccc(-c3ccc4c5c(cccc35)C(=O)N(CCCCn3c[n+](Cc5ccc(F)cc5F)cn3)C4=O)cc2)c2ccc(OC)cc2)cc1` [TriPE-NT], the “morphology of MDR S. epidermidis” value in the data set with MDR S. epidermidis is “wrinkled bacterial cell wall”. Besides, the “morphology of MDR E. coli” value with MDR E. coli (setting [9]) was “obvious rough surface and damaged cell wall”; in the data set on MDR E. coli (setting [10]), “cell wall fragmentations”. In addition, the “morphology of E. coli” value with E. coli [1] (setting [9]) is “obvious rough surface and damaged cell wall”; in the data set with E. coli [1] (setting [10]) it was “cell wall fragmentations”. In addition, the “morphology of S. epidermidis” value in the data set with S. epidermidis [2] is reported as “wrinkled bacterial cell wall”. Moreover, the “percentage of E. coli co-stained by TriPE-NT and PI (dead bacteria)” value in the data set on E. coli [3] (10 μM TriPE-NT and PI) was 22.1±12.2%. Moreover, in the data set on E. coli [3] (10 μM), the “percentage of E. coli stained by TriPE-NT” value was 88.1±9.8%. Also, the “percentage of S. epidermidis co-stained by TriPE-NT and PI (dead bacteria)” value in the data set with S. epidermidis [4] (10 μM TriPE-NT and PI) is given as 80.9±15.8%. Besides, in the data set on S. epidermidis [4] (10 μM), the “percentage of S. epidermidis stained by TriPE-NT” value turned out to be 96.2±5.6%. Further, the figures for the “wound size, E. coli-infected wounds” value in the data set on E. coli-infected wounds (setting [11]) and in the data set on E. coli-infected wounds (setting [13]) were “no apparent difference” and “more apparent reduction of wound size”, respectively. Also, in the data set with E. coli-infected wounds (setting [12]), the “HE staining of wound tissue, invaded lymphocytes, E. coli-infected wounds” value is “reduced the inflammatory reactions”. Moreover, the “wound size, MDR E. coli-infected wounds” value in data set [5] (setting [11]) is listed as “no apparent difference”; in [5] (setting [13]), “significantly smaller”. Besides, the “HE staining of wound tissue, invaded lymphocytes, MDR E. coli-infected wounds” value in data set [5] (setting [12]) was “reduced the inflammatory reactions”. In addition, the “wound size, S. epidermidis-infected wounds” value is given as “no apparent difference” in data set [6] (setting [11]) and “more apparent reduction of wound size” in data set [6] (setting [13]). Besides, the “HE staining of wound tissue, invaded lymphocytes, S. epidermidis-infected wounds” value in data set [6] (setting [12]) is given as “reduced the inflammatory reactions”. In addition, in [6] (day 7 post-injury, TriPE-NT plus light vs control), the “HE staining of wound tissue, S. epidermidis-infected wounds” value was “appearance of fibroblasts and newly formed squamous epithelial layers; also recorded: appearance of hair follicles”. Further, the “cell viability of HUVECs” value in [7] (setting [14]) is reported as “not significantly changed”. Further, the “cytotoxicity to HUVECs with increase of irradiation time” value in data set [7] (setting [15]) is on record as “no obvious cytotoxicity”. In [8] (setting [14]), the “cell viability of HAFs” value is listed as “not significantly changed”. For the same molecule, the “cytotoxicity to HAFs with increase of irradiation time” value in data set [8] (setting [15]) is “no obvious cytotoxicity”.
